Among the data in PubChem BioAssay (NCI) are TGI values, retold here.

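Following 48 hours of exposure in 96-well plates, responses at five concentrations were used to interpolate endpoints linearly. The concentration for full growth arrest is given as TGI.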

Some test systems named below: LXFL 529 NSCLC; KM20L2 colon; DMS 114 small cell lung; DMS 273 small cell lung; M19-MEL melanoma; HOP-18 NSCLC; SNB-78 CNS; DLD-1 colon; RXF-631 renal; XF 498 CNS.
What all share (test): inhibition of tumour cell growth, NCI panel, 48 h

With `CC(=O)Nc1ccc(-c2nnc(SCC(=O)Nc3cccc(Cl)c3)o2)cc1`, the TGI was 24.8 µM in the test on LXFL 529 NSCLC; 31.4 µM in the test on KM20L2 colon; 6.07 µM in the test with DMS 114 small cell lung; 62.4 µM with DMS 273 small cell lung; over 100 µM in the test on M19-MEL melanoma; 25.5 µM with HOP-18 NSCLC. Moreover, the results for the TGI in the test with SNB-78 CNS and with DLD-1 colon were over 100 µM and 28.3 µM, respectively.
In the case of `O=C1Cc2nc(CO)c(CO)c(CO)c2CO1`, the TGI in the test with LXFL 529 NSCLC, in the test with KM20L2 colon, with DMS 114 small cell lung, in the test on DMS 273 small cell lung, with M19-MEL melanoma and with HOP-18 NSCLC was over 100 µM each time. The TGI in the test on SNB-78 CNS and with DLD-1 colon was over 100 µM in each case.
`CN/C=C(\C(=O)c1ccc(OC)c(OC)c1)c1ccc(OC)cc1`: the TGI was 32.5 µM with RXF-631 renal; 30.2 µM in the test on LXFL 529 NSCLC; 46.8 µM in the test with DMS 114 small cell lung; 21.7 µM with DMS 273 small cell lung; 34.3 µM with M19-MEL melanoma; 20.9 µM in the test with HOP-18 NSCLC. In addition, the TGI was found to be 33.2 µM in the test with XF 498 CNS and 31.7 µM with DLD-1 colon.
Consider `COC1(C)C(=O)N2C1N(C(=O)OC(C)(C)C)CC2(C)C` (stereo unspecified), for which the TGI in the test on LXFL 529 NSCLC, with KM20L2 colon, in the test on DMS 114 small cell lung, in the test with DMS 273 small cell lung, in the test on M19-MEL melanoma and with HOP-18 NSCLC was over 100 µM throughout. Moreover, the TGI in the test on SNB-78 CNS and in the test with DLD-1 colon was over 100 µM in each case.
For the compound `CC[C@]12C=CCN3CCC4(c5cc([C@@]6(C(=O)OC)CC7CN(CCc8c6[nH]c6ccccc86)C[C@@H]6CCCC[C@H]76)c(OC)cc5N(C)C4[C@](O)(C(=O)OC)C1OC(C)=O)[C@@H]32` (stereo partly specified), the TGI with LXFL 529 NSCLC was 1.71 µM; in the test with DMS 114 small cell lung, under 0.01 µM; with M19-MEL melanoma it was 16.3 µM; in the test with SNB-78 CNS it was 19.9 µM; with XF 498 CNS, 3.79 µM; in the test on DLD-1 colon it was 13.8 µM.
For `c1cc2nnsc2s1`, the TGI with LXFL 529 NSCLC, with KM20L2 colon, in the test on DMS 273 small cell lung, in the test with M19-MEL melanoma, in the test with HOP-18 NSCLC and with SNB-78 CNS was over 100 µM throughout. Also, the TGI in the test on XF 498 CNS and in the test with DLD-1 colon was over 100 µM each time.
Take `CC(c1ccc2c(c1)CCC1C2CC2OC23CC=CC(=O)[C@]13C)C1C[C@]2(C)O[C@]2(C)[C@H](O)O1` (stereo partly specified): the TGI in the test with LXFL 529 NSCLC was over 100 µM; in the test with KM20L2 colon, over 100 µM; in the test on DMS 114 small cell lung, 4.97 µM; with DMS 273 small cell lung, over 100 µM; in the test with M19-MEL melanoma it was over 100 µM; in the test with XF 498 CNS, over 100 µM.
Take `COc1ccc2c(=O)cc(-c3ccc(OC)c(OC)c3OC)oc2c1`: the TGI in the test with RXF-631 renal is over 100 µM; in the test with LXFL 529 NSCLC, over 100 µM; with KM20L2 colon it was 77.3 µM; with DMS 114 small cell lung, over 100 µM; with M19-MEL melanoma it was over 100 µM; in the test with XF 498 CNS, over 100 µM. The compound also had a TGI in the test with DLD-1 colon of over 100 µM.
Take `COc1ccc(N2C(=O)C3c4[nH]c5ccccc5c4C4CC(C)(C)CC(C)(C)C4C3C2=O)cc1` (stereo unspecified): the TGI with LXFL 529 NSCLC is 27.7 µM; in the test with KM20L2 colon, over 100 µM; with DMS 114 small cell lung it was 97.7 µM; in the test with DMS 273 small cell lung, 23.8 µM; in the test on M19-MEL melanoma it was 33.7 µM; in the test on HOP-18 NSCLC, 36.5 µM. In addition, the TGI in the test with SNB-78 CNS is 55.3 µM; with XF 498 CNS it was 36.8 µM; with DLD-1 colon it was over 100 µM.
As to `CCOC(=O)C1=C(C)NC2=C(C(=O)N(c3ccccc3)C2c2ccccc2)C1c1ccccc1` (stereo unspecified), the TGI in the test with RXF-631 renal was found to be 32.9 µM; with LXFL 529 NSCLC, 30.3 µM; in the test on DMS 114 small cell lung, 32.4 µM; in the test on M19-MEL melanoma it was 32.3 µM; with HOP-18 NSCLC it was 37.7 µM; with SNB-78 CNS it was 45.3 µM. Moreover, the TGI stood at 37.5 µM in the test with XF 498 CNS and 34.5 µM in the test on DLD-1 colon.
For `CC(=O)OCC1OC(OC2C(COC(C)=O)OC(Sc3ccccc3C)C(OC(C)=O)C2OC(C)=O)C(OC(C)=O)C(OC(C)=O)C1OC(C)=O` (stereo unspecified), the TGI in the test with LXFL 529 NSCLC, with KM20L2 colon, with DMS 114 small cell lung, in the test on DMS 273 small cell lung, in the test with M19-MEL melanoma and with HOP-18 NSCLC was over 100 µM each time. Besides, the TGI in the test with SNB-78 CNS and with DLD-1 colon was over 100 µM throughout.
As for `COC(=O)[C@@]1(C)C(=O)CC[C@@H]1C=O`, the TGI with LXFL 529 NSCLC, in the test with KM20L2 colon, in the test on DMS 114 small cell lung, with M19-MEL melanoma, in the test with SNB-78 CNS and with XF 498 CNS was over 100 µM each time. This compound gave a TGI with DLD-1 colon of over 100 µM.
